Test system: MDA-MB-231 multicell spheroids, viability
Assay: Anticancer human tumor MDA-MB-231 cell line growth inhibition [PI3K];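 note: spheroids exposed to agents for seven days before reading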;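 for viability, T/C: percent of vehicle control luminescence with DMSO treated spheroids as 100%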
Settings: for IC50: curve of first compound; for viability, T/C: stronger effect = lower value
Summary of the method: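 Stroma-containing spheroids: tumor line, pooled-donor HUVEC, hMSC. Treatments: targeted agents with PI3K inhibitors. Dosing: clinically relevant, half-log spacing, 10 microM ceiling without known Cmax. Read-out: cell viability.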

[1] = second compound 0.00316 µM, first compound 0.0316 µM
[2] = second compound 0.00316 µM, first compound 0.1 µM
[3] = second compound 0.00316 µM, first compound 0.316 µM
[4] = second compound 0.00316 µM, first compound 1 µM
[5] = second compound 0.00316 µM, first compound 3.16 µM
[6] = second compound 0.00316 µM, first compound 10 µM
[7] = second compound 0.01 µM, first compound 0.0316 µM
[8] = second compound 0.01 µM, first compound 0.1 µM
[9] = second compound 0.01 µM, first compound 0.316 µM
[10] = second compound 0.01 µM, first compound 1 µM
[11] = second compound 0.01 µM, first compound 3.16 µM
[12] = second compound 0.01 µM, first compound 10 µM
[13] = second compound 0.0316 µM, first compound 0.0316 µM
[14] = second compound 0.0316 µM, first compound 0.1 µM
[15] = second compound 0.0316 µM, first compound 0.316 µM
[16] = second compound 0.0316 µM, first compound 1 µM
[17] = second compound 0.0316 µM, first compound 3.16 µM
[18] = second compound 0.0316 µM, first compound 10 µM
[19] = second compound 0.1 µM, first compound 0.0316 µM
[20] = second compound 0.1 µM, first compound 0.1 µM
[21] = second compound 0.1 µM, first compound 0.316 µM
[22] = second compound 0.1 µM, first compound 1 µM
[23] = second compound 0.1 µM, first compound 3.16 µM
[24] = second compound 0.1 µM, first compound 10 µM
[25] = second compound 0.316 µM, first compound 0.0316 µM
[26] = second compound 0.316 µM, first compound 0.1 µM
[27] = second compound 0.316 µM, first compound 0.316 µM
[28] = second compound 0.316 µM, first compound 1 µM
[29] = second compound 0.316 µM, first compound 3.16 µM
[30] = second compound 0.316 µM, first compound 10 µM
[31] = second compound 1 µM, first compound 0.0316 µM
[32] = second compound 1 µM, first compound 0.1 µM
[33] = second compound 1 µM, first compound 0.316 µM
[34] = second compound 1 µM, first compound 1 µM
[35] = second compound 1 µM, first compound 3.16 µM
[36] = second compound 1 µM, first compound 10 µM

C#Cc1c(F)ccc2cc(O)cc(-c3ncc4c(N5CC6CCC(C5)N6)nc(OCC56CCCN5CC(F)C6)nc4c3F)c12 (stereo not drawn) + CC(Nc1ccc2c(c1)OCCn1cc(N3C(=O)OCC3C(F)F)nc1-2)C(N)=O
IC50 (second compound 0.00316 µM): 9280 nM | IC50 (second compound 0.01 µM): 8370 nM | IC50 (second compound 0.0316 µM): 4680 nM | IC50 (second compound 0.1 µM): 3360 nM | IC50 (second compound 0.316 µM): 1540 nM | IC50 (second compound 1 µM): 1060 nM | viability, T/C [1]: 103% | viability, T/C [2]: 99% | viability, T/C [3]: 96.1% | viability, T/C [4]: 86.7% | viability, T/C [5]: 69.8% | viability, T/C [6]: 48.6% | viability, T/C [7]: 94% | viability, T/C [8]: 94.8% | viability, T/C [9]: 87.6% | viability, T/C [10]: 78.3% | viability, T/C [11]: 63.9% | viability, T/C [12]: 47.4% | viability, T/C [13]: 74.2% | viability, T/C [14]: 83.1% | viability, T/C [15]: 74.4% | viability, T/C [16]: 61.4% | viability, T/C [17]: 56.7% | viability, T/C [18]: 41.8% | viability, T/C [19]: 70.3% | viability, T/C [20]: 65.3% | viability, T/C [21]: 64.5% | viability, T/C [22]: 56.8% | viability, T/C [23]: 53.7% | viability, T/C [24]: 35.5% | viability, T/C [25]: 67.6% | viability, T/C [26]: 67.1% | viability, T/C [27]: 58.8% | viability, T/C [28]: 54.2% | viability, T/C [29]: 44% | viability, T/C [30]: 33.4% | viability, T/C [31]: 60.7% | viability, T/C [32]: 54.4% | viability, T/C [33]: 55.4% | viability, T/C [34]: 51.4% | viability, T/C [35]: 41.5% | viability, T/C [36]: 28%

CC(Cn1ccc(-c2ccc(C#N)c(Cl)c2)n1)NC(=O)c1cc(C(C)O)[nH]n1 (stereo not drawn) + CC(Nc1ccc2c(c1)OCCn1cc(N3C(=O)OCC3C(F)F)nc1-2)C(N)=O
IC50 (second compound 0.00316 µM): > 10000 nM | IC50 (second compound 0.01 µM): > 10000 nM | IC50 (second compound 0.0316 µM): > 10000 nM | IC50 (second compound 0.1 µM): > 10000 nM | IC50 (second compound 0.316 µM): > 10000 nM | IC50 (second compound 1 µM): > 10000 nM | viability, T/C [1]: 102% | viability, T/C [2]: 95.6% | viability, T/C [3]: 104% | viability, T/C [4]: 95% | viability, T/C [5]: 96.5% | viability, T/C [6]: 88.1% | viability, T/C [7]: 96% | viability, T/C [8]: 97.5% | viability, T/C [9]: 91.8% | viability, T/C [10]: 94.6% | viability, T/C [11]: 84.4% | viability, T/C [12]: 77% | viability, T/C [13]: 83.2% | viability, T/C [14]: 81.7% | viability, T/C [15]: 82.4% | viability, T/C [16]: 77% | viability, T/C [17]: 74.3% | viability, T/C [18]: 64% | viability, T/C [19]: 80.1% | viability, T/C [20]: 69.6% | viability, T/C [21]: 72% | viability, T/C [22]: 69.9% | viability, T/C [23]: 64.8% | viability, T/C [24]: 50.3% | viability, T/C [25]: 63.5% | viability, T/C [26]: 63.3% | viability, T/C [27]: 65.1% | viability, T/C [28]: 61.2% | viability, T/C [29]: 60.8% | viability, T/C [30]: 53.6% | viability, T/C [31]: 66% | viability, T/C [32]: 56.3% | viability, T/C [33]: 64.5% | viability, T/C [34]: 60.2% | viability, T/C [35]: 56.1% | viability, T/C [36]: 48.8%

CC1(C)CCC(Nc2ncc(C(F)(F)F)c(-c3c[nH]c4c(P(C)(C)=O)c(C#N)ccc34)n2)CN1 (stereo not drawn) + CC(Nc1ccc2c(c1)OCCn1cc(N3C(=O)OCC3C(F)F)nc1-2)C(N)=O
IC50 (second compound 0.00316 µM): < 31.6 nM | IC50 (second compound 0.01 µM): < 31.6 nM | IC50 (second compound 0.0316 µM): < 31.6 nM | IC50 (second compound 0.1 µM): < 31.6 nM | IC50 (second compound 0.316 µM): < 31.6 nM | IC50 (second compound 1 µM): < 31.6 nM | viability, T/C [1]: 47.2% | viability, T/C [2]: 47.7% | viability, T/C [3]: 42.2% | viability, T/C [4]: 48.2% | viability, T/C [5]: 47.4% | viability, T/C [6]: 4.16% | viability, T/C [7]: 48.4% | viability, T/C [8]: 44.9% | viability, T/C [9]: 44.2% | viability, T/C [10]: 46.7% | viability, T/C [11]: 47.5% | viability, T/C [12]: 3.26% | viability, T/C [13]: 45.1% | viability, T/C [14]: 42.1% | viability, T/C [15]: 43.6% | viability, T/C [16]: 45.2% | viability, T/C [17]: 42.4% | viability, T/C [18]: 3.28% | viability, T/C [19]: 41.9% | viability, T/C [20]: 39.6% | viability, T/C [21]: 41.1% | viability, T/C [22]: 37.8% | viability, T/C [23]: 36.2% | viability, T/C [24]: 2.99% | viability, T/C [25]: 39.8% | viability, T/C [26]: 38.9% | viability, T/C [27]: 36.1% | viability, T/C [28]: 37.4% | viability, T/C [29]: 34.8% | viability, T/C [30]: 2.9% | viability, T/C [31]: 37.8% | viability, T/C [32]: 36% | viability, T/C [33]: 33.4% | viability, T/C [34]: 34.6% | viability, T/C [35]: 34.9% | viability, T/C [36]: 2.74%

Cn1cnc2c(F)c(Nc3ccc(Br)cc3Cl)c(C(=O)NOCCO)cc21 + CC(Nc1ncnc2nc[nH]c12)c1cc2cccc(Cl)c2c(=O)n1-c1ccccc1
IC50 (second compound 0.0316 µM): 208 nM | IC50 (second compound 0.1 µM): 170 nM | IC50 (second compound 0.316 µM): 41.7 nM | IC50 (second compound 1 µM): 24.5 nM | IC50 (second compound 3.16 µM): < 9.49 nM | IC50 (second compound 10 µM): < 9.49 nM | viability, T/C (second compound 0.0316 µM, first compound 0.00949 µM): 75% | viability, T/C (second compound 0.0316 µM, first compound 0.03 µM): 63.7% | viability, T/C (second compound 0.0316 µM, first compound 0.0949 µM): 50.3% | viability, T/C (second compound 0.0316 µM, first compound 0.3 µM): 50.5% | viability, T/C (second compound 0.0316 µM, first compound 0.949 µM): 44.5% | viability, T/C (second compound 0.0316 µM, first compound 3 µM): 31.8% | viability, T/C (second compound 0.1 µM, first compound 0.00949 µM): 72.2% | viability, T/C (second compound 0.1 µM, first compound 0.03 µM): 63.9% | viability, T/C (second compound 0.1 µM, first compound 0.0949 µM): 50.2% | viability, T/C (second compound 0.1 µM, first compound 0.3 µM): 47.5% | viability, T/C (second compound 0.1 µM, first compound 0.949 µM): 41.8% | viability, T/C (second compound 0.1 µM, first compound 3 µM): 30.6% | viability, T/C (second compound 0.316 µM, first compound 0.00949 µM): 65% | viability, T/C (second compound 0.316 µM, first compound 0.03 µM): 53% | viability, T/C (second compound 0.316 µM, first compound 0.0949 µM): 42.3% | viability, T/C (second compound 0.316 µM, first compound 0.3 µM): 41% | viability, T/C (second compound 0.316 µM, first compound 0.949 µM): 39.1% | viability, T/C (second compound 0.316 µM, first compound 3 µM): 34.6% | viability, T/C (second compound 1 µM, first compound 0.00949 µM): 56.1% | viability, T/C (second compound 1 µM, first compound 0.03 µM): 50.5% | viability, T/C (second compound 1 µM, first compound 0.0949 µM): 37.7% | viability, T/C (second compound 1 µM, first compound 0.3 µM): 39% | viability, T/C (second compound 1 µM, first compound 0.949 µM): 33.2% | viability, T/C (second compound 1 µM, first compound 3 µM): 26.8% | viability, T/C (second compound 3.16 µM, first compound 0.00949 µM): 44.7% | viability, T/C (second compound 3.16 µM, first compound 0.03 µM): 36.4% | viability, T/C (second compound 3.16 µM, first compound 0.0949 µM): 28.8% | viability, T/C (second compound 3.16 µM, first compound 0.3 µM): 27.1% | viability, T/C (second compound 3.16 µM, first compound 0.949 µM): 26.2% | viability, T/C (second compound 3.16 µM, first compound 3 µM): 19.8% | viability, T/C (second compound 10 µM, first compound 0.00949 µM): 32.8% | viability, T/C (second compound 10 µM, first compound 0.03 µM): 29.2% | viability, T/C (second compound 10 µM, first compound 0.0949 µM): 21.7% | viability, T/C (second compound 10 µM, first compound 0.3 µM): 22.6% | viability, T/C (second compound 10 µM, first compound 0.949 µM): 24% | viability, T/C (second compound 10 µM, first compound 3 µM): 12.9%

— PubChem BioAssay AID1963958 (Molecular Pharmacology Branch, DTP, NCI, 2024)
